Article PMC12197678, “Cvill6 and Cvill7: Potent and Selective Peptide Blockers of Kv1.2 Ion Channel Isolated from Mexican Scorpion Centruroides villegasi” (Toxins, 2025)
Positions of bridges follow the written chain, without caps; N, C: chain ends. Residues, ends and D or L forms follow the SMILES beside them.

Experiments:
[1] = test system: hKv1.5; assay type: cell-based, human; settings: 100 nM; ~3 min
Source text: (§1) For current recordings, Kv1.1, Kv1.2, and Kv1.5 were transiently expressed in CHO cells while for Kv11.1 a stable HEK293 cell line was used. To record Kv1.3 currents human peripheral T lymphocytes were activated with Phytohemagglutinin A (PHA) to boost Kv1.3 expression and Ca^2+-free intracellular solution to prevent the KCa3.1 channel opening. […] Appropriate voltage protocols were applied to record the K^+ currents from voltage-clamped cells in whole-cell configurations. Toxins were freshly dissolved in the bath solution supplemented with 0.1 mg/mL BSA and applied to the patched cells via a gravity-fed micro-perfusion system with an approximate flow rate of 200 µL/min.
Chinese hamster ovary (CHO) cells (generously provided by Yosef Yarden, Weizmann Institute of Science, Rehovot, Israel) or human embryonic kidney (HEK293) cells were cultured and maintained in Dulbecco’s modified Eagle medium (DMEM, Thermo Fisher Scientific, Waltham, MA, USA) supplemented with 2 mM L-glutamine, 10% fetal bovine serum (FBS), 100 µg/mL streptomycin, and 100 U/mL penicillin-g (Sigma-Aldrich, Budapest, Hungary) following standard culturing conditions [52]. For transient expression of ion channels, CHO cells were transfected using the Lipofectamine 2000 kit (Invitrogen, Waltham, MA, USA) following the manufacturer’s instructions with plasmids encoding specific ion channels, including hKv1.1 (KCNA1 gene), hKv1.2 (KCNA2 gene), and hKv1.5 (KCNA5 gene) in a pCMV6-AC-GFP vector (OriGene Technologies), hKCa2.2 (KCNN2 gene) in a pCDN3 plasmid (for this transfection a GFP containing plasmid was co-transfected, courtesy of Bernard Attali, Tel Aviv University, Tel Aviv, Israel), and hKCa3.1 (KCNN4 gene) in a pEGFP-C1 vector (a kind gift by H. Wulff, University of California, Davis, CA, USA). […] Electrophysiological recordings were typically conducted 24 to 48 h after transfection. […]
Whole-cell currents were recorded using the patch-clamp technique in voltage-clamp mode, following standard protocols [73]. […]

[2] = target: T1, hKv1.1 (Homo sapiens, UniProt Q09470); assay: cell-based; assay type: cell-based
T1 construct: host or cells: CHO cells, transient transfection (Lipofectamine 2000)
T1 sequence (Q09470 whole entry): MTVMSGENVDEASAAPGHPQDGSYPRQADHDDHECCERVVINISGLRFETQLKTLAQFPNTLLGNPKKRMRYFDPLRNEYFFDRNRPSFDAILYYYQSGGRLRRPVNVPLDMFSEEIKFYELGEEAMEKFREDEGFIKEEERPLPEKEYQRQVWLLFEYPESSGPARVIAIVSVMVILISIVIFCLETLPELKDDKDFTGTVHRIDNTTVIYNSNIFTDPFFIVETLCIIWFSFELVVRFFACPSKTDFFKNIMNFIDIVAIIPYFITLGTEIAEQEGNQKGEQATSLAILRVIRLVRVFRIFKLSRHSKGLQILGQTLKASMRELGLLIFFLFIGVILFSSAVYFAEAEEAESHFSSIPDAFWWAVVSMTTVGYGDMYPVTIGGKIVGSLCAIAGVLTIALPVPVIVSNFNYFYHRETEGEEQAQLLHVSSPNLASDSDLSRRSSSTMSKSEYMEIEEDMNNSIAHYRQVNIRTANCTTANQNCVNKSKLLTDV
Source text: as §1
(§2) Chinese hamster ovary (CHO) cells (generously provided by Yosef Yarden, Weizmann Institute of Science, Rehovot, Israel) or human embryonic kidney (HEK293) cells were cultured and maintained in Dulbecco’s modified Eagle medium (DMEM, Thermo Fisher Scientific, Waltham, MA, USA) supplemented with 2 mM L-glutamine, 10% fetal bovine serum (FBS), 100 µg/mL streptomycin, and 100 U/mL penicillin-g (Sigma-Aldrich, Budapest, Hungary) following standard culturing conditions [52]. For transient expression of ion channels, CHO cells were transfected using the Lipofectamine 2000 kit (Invitrogen, Waltham, MA, USA) following the manufacturer’s instructions with plasmids encoding specific ion channels, including hKv1.1 (KCNA1 gene), hKv1.2 (KCNA2 gene), and hKv1.5 (KCNA5 gene) in a pCMV6-AC-GFP vector (OriGene Technologies), hKCa2.2 (KCNN2 gene) in a pCDN3 plasmid (for this transfection a GFP containing plasmid was co-transfected, courtesy of Bernard Attali, Tel Aviv University, Tel Aviv, Israel), and hKCa3.1 (KCNN4 gene) in a pEGFP-C1 vector (a kind gift by H. Wulff, University of California, Davis, CA, USA). […] Electrophysiological recordings were typically conducted 24 to 48 h after transfection.
(§3) Whole-cell currents were recorded using the patch-clamp technique in voltage-clamp mode, following standard protocols [73]. […] Micropipettes were made from GC150F-7.5 borosilicate capillaries (Harvard Apparatus Co., Holliston, MA, USA) using a Sutter P2000 laser puller with tip resistance generally ranging from 3–6 MΩ in the bath solution. Only recordings with a leak current at the holding potential (Vh) of <10% of the peak current at the test potential were included in the data analysis. All recordings were performed at room temperature (20–25 °C). Control and test solutions were perfused to the cells via a gravity-driven micro-perfusion system and AutoMate Perfusion Pencil Multi-Barrel Manifold Tip (AutoMate Scientific, Berkeley, CA, USA), with an approximate flow rate of 200 µL/min, and the excess amount of bath solution was continuously removed from the recording chamber using vacuum suction.
(§4) The duration of depolarization pulses was 15 ms for Kv1.3 and 50 ms for Kv1.1 and Kv1.5. However, for Kv1.2, 15–500 ms-long pulses were used to achieve the saturated peak current due to the variable activation kinetics of this channel [74].

[3] = test system: hKCa2.2 (SK2); assay: Whole-cell patch-clamp, hKCa2.2 current in transfected CHO cells; assay type: cell-based, human; settings: 100 nM; ~3 min
Source text: The scorpion toxins from the α-KTx 2 family also modulate the function of Ca^2+-activated potassium channels, in addition to Kv1 channels. Therefore, we investigated the activity of Cvill6 and Cvill7 toxins on three different types of Ca^2+-activated K^+ channels: (1) hKCa2.2 (SK2), the small-conductance Ca^2+-activated channel; (2) hKCa3.1 (IKCa1, SK4), the intermediate-conductance Ca^2+-activated channels, mainly expressed in T lymphocytes; and (3) mKCa1.1 (BK or MaxiK), the large-conductance voltage- and Ca^2+- activated channel of mice. […] The quantity of native toxins was insufficient to conduct the full dose–response curves at this high concentration range (see above).
Chinese hamster ovary (CHO) cells (generously provided by Yosef Yarden, Weizmann Institute of Science, Rehovot, Israel) or human embryonic kidney (HEK293) cells were cultured and maintained in Dulbecco’s modified Eagle medium (DMEM, Thermo Fisher Scientific, Waltham, MA, USA) supplemented with 2 mM L-glutamine, 10% fetal bovine serum (FBS), 100 µg/mL streptomycin, and 100 U/mL penicillin-g (Sigma-Aldrich, Budapest, Hungary) following standard culturing conditions. […] Cells expressing GFP were identified using a Nikon TE 2000U fluorescence microscope (Nikon, Tokyo, Japan) with bandpass filters set to 455–495 nm for excitation and 515–555 nm for emission. […]

[4] = target: T2, hKv1.2 (Homo sapiens, UniProt P16389); assay: Whole-cell patch-clamp, hKv1.2 current in transiently transfected CHO cells; assay type: cell-based
T2 construct: host or cells: CHO cells, transient transfection (Lipofectamine 2000)
T2 sequence (P16389 whole entry): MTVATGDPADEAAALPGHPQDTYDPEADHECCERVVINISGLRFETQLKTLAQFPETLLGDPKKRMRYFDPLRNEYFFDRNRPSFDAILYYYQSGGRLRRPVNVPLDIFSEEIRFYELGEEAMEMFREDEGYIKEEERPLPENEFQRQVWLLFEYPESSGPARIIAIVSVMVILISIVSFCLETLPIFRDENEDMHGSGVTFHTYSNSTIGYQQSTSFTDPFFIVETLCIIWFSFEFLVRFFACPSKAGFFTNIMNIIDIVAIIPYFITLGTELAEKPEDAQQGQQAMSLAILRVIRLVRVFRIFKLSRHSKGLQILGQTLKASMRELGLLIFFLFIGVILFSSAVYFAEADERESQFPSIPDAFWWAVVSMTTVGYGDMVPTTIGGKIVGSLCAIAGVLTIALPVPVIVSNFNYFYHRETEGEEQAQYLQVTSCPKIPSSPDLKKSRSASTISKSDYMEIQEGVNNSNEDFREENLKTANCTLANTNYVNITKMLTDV
Source text: as §1, §2, §3, §4

[5] = target: T3, hKCa3.1 (IKCa1, SK4) (Homo sapiens, UniProt O15554); assay: Whole-cell patch-clamp, hKCa3.1 current in transfected CHO cells; assay type: cell-based
T3 construct: expressed in transfected cells; host or cells: CHO cells, transient transfection (Lipofectamine 2000); plasmid a gift of H. Wulff
T3 sequence (O15554 whole entry): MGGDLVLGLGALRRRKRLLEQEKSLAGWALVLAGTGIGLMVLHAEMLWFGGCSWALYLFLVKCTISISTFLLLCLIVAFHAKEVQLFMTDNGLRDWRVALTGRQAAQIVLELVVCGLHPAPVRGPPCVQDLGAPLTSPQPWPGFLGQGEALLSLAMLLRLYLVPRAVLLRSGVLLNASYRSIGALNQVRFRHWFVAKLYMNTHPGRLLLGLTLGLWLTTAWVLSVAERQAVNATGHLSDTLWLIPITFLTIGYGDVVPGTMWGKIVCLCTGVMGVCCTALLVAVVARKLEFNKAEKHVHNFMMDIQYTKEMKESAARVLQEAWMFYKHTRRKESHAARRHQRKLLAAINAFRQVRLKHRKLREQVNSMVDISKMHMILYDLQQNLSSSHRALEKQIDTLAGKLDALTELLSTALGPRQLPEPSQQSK
Source text: The scorpion toxins from the α-KTx 2 family also modulate the function of Ca^2+-activated potassium channels, in addition to Kv1 channels. Therefore, we investigated the activity of Cvill6 and Cvill7 toxins on three different types of Ca^2+-activated K^+ channels: (1) hKCa2.2 (SK2), the small-conductance Ca^2+-activated channel; (2) hKCa3.1 (IKCa1, SK4), the intermediate-conductance Ca^2+-activated channels, mainly expressed in T lymphocytes; and (3) mKCa1.1 (BK or MaxiK), the large-conductance voltage- and Ca^2+- activated channel of mice. Appropriate depolarization protocols were applied to record the K^+ current through respective KCa channels as shown in the inset of each panel in Figure 6A–C. […] Cvill6 reduced ~40% of the KCa3.1 current (Figure 6C), where the RCF value was 0.73 ± 0.05 (n = 5) at 100 nM (Figure 6D). On the other hand, Cvill7 inhibited ~25% of the current at the same concentration (Figure 6C), with an RCF value 0.84 ± 0.03 (n = 5) (Figure 6D). The time course of inhibition of KCa3.1 currents at 100 nM of Cvill6 or Cvill7 is shown in Figure 6E and Figure 6F, respectively. The normalized peak currents (see Section 2.4 or Section 5 for details) for individual cells (n = 5) were averaged at each time point and plotted as a function of time. […] The recovery from the block with Cvill6 to the initial peak current occurred in 4–5 consecutive traces (~0.8 min) and in the case of Cvill7 it took only 2–3 consecutive traces (~0.5 min) after perfusing the cell with toxin-lacking solution. […] The quantity of native toxins was insufficient to conduct the full dose–response curves at this high concentration range (see above).
Chinese hamster ovary (CHO) cells (generously provided by Yosef Yarden, Weizmann Institute of Science, Rehovot, Israel) or human embryonic kidney (HEK293) cells were cultured and maintained in Dulbecco’s modified Eagle medium (DMEM, Thermo Fisher Scientific, Waltham, MA, USA) supplemented with 2 mM L-glutamine, 10% fetal bovine serum (FBS), 100 µg/mL streptomycin, and 100 U/mL penicillin-g (Sigma-Aldrich, Budapest, Hungary) following standard culturing conditions. For transient expression of ion channels, CHO cells were transfected using the Lipofectamine 2000 kit (Invitrogen, Waltham, MA, USA) following the manufacturer’s instructions with plasmids encoding specific ion channels, including hKv1.1 (KCNA1 gene), hKv1.2 (KCNA2 gene), and hKv1.5 (KCNA5 gene) in a pCMV6-AC-GFP vector (OriGene Technologies), hKCa2.2 (KCNN2 gene) in a pCDN3 plasmid (for this transfection a GFP containing plasmid was co-transfected, courtesy of Bernard Attali, Tel Aviv University, Tel Aviv, Israel), and hKCa3.1 (KCNN4 gene) in a pEGFP-C1 vector (a kind gift by H. Wulff, University of California, Davis, CA, USA). Cells expressing GFP were identified using a Nikon TE 2000U fluorescence microscope (Nikon, Tokyo, Japan) with bandpass filters set to 455–495 nm for excitation and 515–555 nm for emission. Electrophysiological recordings were typically conducted 24 to 48 h after transfection.
The extracellular solution (bath solution) for both Kv and KCa channels consisted of 145 mM NaCl, 5 mM KCl, 2.5 mM CaCl2, 1 mM MgCl2, 10 mM HEPES, and 5.5 mM glucose, pH 7.35, and osmolarity between 302 and 308 mOsM/L. For positive control solutions containing various concentrations of tetraethylammoniums (TEA^+), Na^+ was substituted with TEA-Cl in equimolar concentration in the bath solution and all other ingredients remained unchanged. To avoid toxin adsorption onto the plastic surfaces of the perfusion system, 0.1 mg/mL of bovine serum albumin (BSA, Sigma-Aldrich, Budapest, Hungary) was also added into all bath solutions prior to the patch-clamp assay. […]

[6] = test system: hKv11.1 (hERG1); assay: Whole-cell patch-clamp, hKv11.1 current in stable HEK293 cells; assay type: cell-based, human; settings: 100 nM; ~3 min
Description: Appropriate voltage protocols were applied to record the K^+ currents from voltage-clamped cells in whole-cell configurations. Toxins were freshly dissolved in the bath solution supplemented with 0.1 mg/mL BSA and applied to the patched cells via a gravity-fed micro-perfusion system with an approximate flow rate of 200 µL/min.
HEK 293 cells stably expressing mKCa1.1 1 (BKCa, Kcnma1 gene, generously provided by C. Beeton from Baylor College of Medicine, Houston, TX, USA) or hKv11.1 (hERG1, KCNH2 gene, gifted by H. Wulff from University of California, Davis, CA, USA) were utilized in this study.
Whole-cell currents were recorded using the patch-clamp technique in voltage-clamp mode, following standard protocols [73]. […] Micropipettes were made from GC150F-7.5 borosilicate capillaries (Harvard Apparatus Co., Holliston, MA, USA) using a Sutter P2000 laser puller with tip resistance generally ranging from 3–6 MΩ in the bath solution. Only recordings with a leak current at the holding potential (Vh) of <10% of the peak current at the test potential were included in the data analysis. All recordings were performed at room temperature (20–25 °C). […]

`CC[C@H](C)[C@H](NC(=O)[C@H](Cc1ccccc1)NC(=O)[C@@H](N)[C@@H](C)O)C(=O)N[C@@H](CC(N)=O)C(=O)N[C@H](C(=O)N[C@@H](CCCCN)C(=O)N[C@H]1CSSC[C@@H]2NC(=O)[C@H](CCCCN)NC(=O)CNC(=O)CNC(=O)[C@H](C)NC(=O)[C@H](Cc3c[nH]cn3)NC(=O)[C@@H]3CCCN3C(=O)CNC(=O)[C@H](Cc3ccc(O)cc3)NC(=O)[C@H](CC(C)C)NC(=O)[C@H](CC(=O)O)NC(=O)[C@H](CCCCN)NC(=O)[C@@H]3CSSC[C@@H](C(=O)N[C@@H](Cc4ccc(O)cc4)C(=O)N[C@@H](CC(N)=O)C(=O)N[C@@H](CC(N)=O)C(N)=O)NC(=O)[C@H](CCCCN)NC(=O)[C@H](CSSC[C@H](NC(=O)[C@H](CCC(N)=O)NC(=O)[C@H](CCCCN)NC(=O)[C@@H]4CCCN4C(=O)[C@H](CO)NC(=O)[C@H]([C@@H](C)O)NC1=O)C(=O)N[C@@H](CC(C)C)C(=O)N[C@@H](CCCCN)C(=O)N1CCC[C@H]1C(=O)N3)NC(=O)[C@H](CCCCN)NC(=O)CNC(=O)[C@H](CC(N)=O)NC(=O)[C@H](CCSC)NC2=O)C(C)C` [Cvill7] (H-TFINVKCTSPKQCLKPCKDLYGPHAGGKCMNGKCKCYNN-NH2; disulfide 7-29, 13-34, 17-36; N-terminus and C-terminus assumed) was tested. Which “effect on hKv1.5 current” value [1] did it give?
Its value is “did not show any effect”.

What about the “reduction of hKv1.1 peak current” value ([2]; 100 nM, representative record, equilibrium block) of the same molecule?
Its value is ~ 32%.

What about the potency estimated from few doses ([2]; CHO, read-out: estimated IC50) of the same molecule?
The potency estimated from few doses was about 192 nM.

What about the inhibition at 0.1 µM ([2]; CHO, read-out: inhibition of Kv1.1 current) of the same molecule?
The inhibition at 0.1 µM was about 34%.

And the “effect on KCa2.2 current” value [3]?
Its value is “Neither Cvill6 nor Cvill7 showed any effect”.

What about the IC50 [4] of the same molecule?
Its IC50 is 0.016 ± 0.00156 nM.

And the “time to apparent saturation of Kv1.2 block” value ([4]; 100 pM)?
Its value is 7 to 8 min.

And the “loss of Kv1.2 current at saturation” value ([4]; 100 pM, n = 4)?
The value was 96 ± 1.4%.

And the inhibition at 0.001 µM ([4]; CHO, 1 nM, representative record, read-out: inhibition of hKv1.2 current)?
Its inhibition at 0.001 µM is over 97%.

What about the koff ([4]; CHO, Kv1.2, calculated from τoff, 100 pM Cvill7 (n = 4) or 100 nM Cvill6 (n = 5)) of the same molecule?
The koff was 0.00017 s⁻¹.

What about the kon ([4]; CHO, Kv1.2, calculated from τon and τoff, 100 pM Cvill7 (n = 4) or 100 nM Cvill6 (n = 5)) of the same molecule?
Its kon is 1e+08 ± 1.5e+07 M⁻¹ s⁻¹.

What about the “selectivity for Kv1.2 over Kv1.3” value ([4]; IC50 ratio) of the same molecule?
The value was ~ 450 fold.

And the “selectivity for Kv1.2 over KCa3.1” value ([4]; KCa3.1 IC50 estimated from a single concentration)?
The value was > 32,000 fold.

What about the “selectivity for Kv1.2 over Kv1.1” value ([4]; Kv1.1 IC50 estimated from a single concentration) of the same molecule?
Its value is ~ 12,000 fold.

What about the “τon, representative fit” value ([4]; Kv1.2, 100 pM, representative fit (Figure S5A)) of the same molecule?
Its value is 75.3 s.

What about the “τon (development of block)” value ([4]; Kv1.2, 100 pM, single-exponential fits cell-by-cell, mean ± SEM, n = 4) of the same molecule?
The value was 104 ± 15 s.

And the “Hill coefficient (H)” value ([4]; Kv1.2, Hill equation fit of RCF values)?
Its value is 1.03.

And the “τoff (wash-out)” value ([4]; Kv1.2, after 100 pM, mean ± SEM, n = 4)?
The value was 5978 ± 538 s.

And the “τoff, representative fit” value ([4]; Kv1.2, after 100 pM, representative fit (Figure S5A))?
Its value is 7380 s.

And the “selectivity over several other ion channels” value ([4]; Kv1.2 vs several other ion channels)?
The value was “three orders of magnitude selectivity over several other ion channels”.

What about the mode of block ([4]; inferred from Hill coefficients close to 1 and single-exponential kinetics) of the same molecule?
Its mode of block is “pore blockers that interact with channels with 1:1 stoichiometry in a bimolecular interaction”.

And the “recovery of blocked Kv1.2 current” value ([4]; toxin-free solution for ~15 min after 100 pM)?
The value was “just one-fifth of the blocked current recovered”.

And the “reversibility of Kv1.2 block” value ([4]; wash-out with toxin-free solution)?
The value was “virtually irreversible inhibitor of Kv1.2”.

And the “reversibility of KCa3.1 inhibition” value ([5]; 100 nM, then toxin-free solution)?
The value was “inhibit the KCa3.1 channel reversibly with quick association and dissociation kinetics”.

What about the “time to steady-state block of KCa3.1” value ([5]; 100 nM, 5–6 consecutive traces, n = 5) of the same molecule?
The value was ~ 1 min.

And the “reduction of KCa3.1 current” value ([5]; 100 nM, representative record)?
The value was ~ 25%.

What about the inhibition at 0.1 µM ([5]; CHO, 100 nM, read-out: inhibition of KCa3.1 current) of the same molecule?
The inhibition at 0.1 µM was about 16%.

What about the potency estimated from few doses ([5]; CHO, KCa3.1, estimated from a single concentration (100 nM), bimolecular 1:1 interaction, read-out: estimated IC50) of the same molecule?
Its potency estimated from few doses is about 527 nM.

And the “remaining current fraction (RCF, I/I0)” value ([5]; KCa3.1, 100 nM, mean ± SEM, n = 5)?
Its value is 0.84 ± 0.03.

And the “time to recovery from KCa3.1 block” value ([5]; toxin-lacking solution after 100 nM, n = 5)?
Its value is ~ 0.5 min.

What about the “effect on hKv11.1 (hERG1) current” value [6] of the same molecule?
The value was “did not show any effect”.
